Measurements as given in patent US20120190868A1, “SUBSTITUTED BENZOCHALCOGENOACENE COMPOUND, THIN FILM COMPRISING THE COMPOUND, AND ORGANIC SEMICONDUCTOR DEVICE INCLUDING THE THIN FILM” (NATIONAL UNIVERSITY CORPORATION NAGOYA UNIVERSITY, priority 2009, published 2012).

Test: Solubility of the compound in a solvent (preparation of solution composition)
Type: physicochemical
Method: The solution composition containing the compound [5] in 0.5 wt % concentration was prepared by dissolving the compound [5] manufactured in Example 1 in tetrahydrofuran.
On the substrate obtained by a similar procedure to Example 8, a 0.5 wt % dichlorobenzene solution of the compound [14] heated at 100° C. was applied by the spin coating method and dried on a hot plate of 120° C. for 30 minutes to result in the formation of a thin film containing the compound and having a thickness of about 30 nm.

| Compound | concentration of solution composition prepared by dissolving the compound (solubility in a solvent) (tetrahydrofuran) [wt %] | concentration of solution of the compound (solubility in a solvent) (dichlorobenzene, heated at 100° C.) [wt %] |
| --- | --- | --- |
| CCCCCCc1ccc2c(c1)sc1c2sc2c3ccc(CCCCCC)cc3sc21 [[5]] | 0.5 |  |
| CCCCCCCCCCCCc1ccc2c(c1)sc1c2sc2c3ccc(CCCCCCCCCCCC)cc3sc21 [[14]] |  | 0.5 |
